The text below walks through data of patent US10124065B2, “Lipids and lipid compositions for the delivery of active agents” (Novartis AG, priority 2013, dated 2018).

The nature of series [1]: Particle size of lipid nanoparticle (dynamic light scattering, Malvern Zetasizer). It counts as physicochemical. In short, it runs like this: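 Sizes are average diameters of fully formed nanoparticles measured by dynamic light scattering. Samples were diluted in PBS to a count rate of about 200–400 kcts. Values are intensity-weighted Z-average sizes.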
Series [2] is described as follows: Polydispersity index (PDI) of lipid nanoparticle (dynamic light scattering). It counts as physicochemical. As to the method: Unless indicated otherwise, all PDIs referred to herein are the PDI of the fully formed nanoparticle, as measured by dynamic light scattering on a Malvern Zetasizer. The nanoparticle sample was diluted in phosphate buffered saline (PBS) so that the count rate was approximately 200-400 kcts. The data is presented in Tables 4 and 5 as a weighted average of the intensity measure.

Series [3] in a line: Measurement of mRNA encapsulation (Quant-iT Ribogreen). The series is classed as physicochemical. Particulars: leptin mRNA in lipid nanoparticles (cationic lipid, DSPC, cholesterol, stealth lipid). As to the method: All equipment and disposable supplies were certified free of RNase activity by the manufacturer or rendered RNase free by use of the RNaseZap reagent (LifeTechnologies). mRNA was encapsulated at a cationic lipid amine to mRNA phosphate (N:P) molar ratio of 4:1. Lipids (cationic lipid, DSPC, cholesterol and lipidated PEG or stealth lipid) were dissolved in ethanol. The molar ratios were […], respectively. The mixture was sonicated briefly, then gently agitated for 5 minutes and then maintained at 37° C. until use. mRNA was exchanged into citrate buffer pH 5.8-6.0 by use of Amicon Ultra-15 centrifugal concentrators, and the final concentration was adjusted to 0.5 mg/ml and held at 37° C. until use. An equal volume of lipids in ethanol, mRNA in citrate buffer, and citrate buffer alone were drawn into disposable syringes. Tubing leading from syringes containing lipids and mRNA are attached to the T junction, and tubing leading from the syringe containing citrate buffer alone was paired with the tubing exiting the T-junction over a collection vessel containing a stir bar on an active stir plate. Syringes were placed in a syringe pump set to expel contents at a flow rate of 1 ml per minute.
The pump was activated, and the collected mRNA in lipid nanoparticles was transferred to SnakeSkin dialysis tubing (10,000 MWCO, Thermo Scientific). Material was dialyzed against RNAse- and pyrogen-free 1× phosphate buffered saline overnight at 4° C.
Percent encapsulation of mRNA in lipid nanoparticles was determined using the Quant-iT Ribogreen RNA Assay kit (Life Technologies). The LNP-mRNA suspension was assayed in buffer (mRNA outside the particle), and buffer plus Triton X-100 detergent (total mRNA). The difference calculated was the mRNA inside the particle. A 1000 ng/mL stock from the RNA provided in the kit was prepared and used to generate a standard curve (0 ng/ml, 15.63-1000 ng/ml) in TE and TE+0.75% Triton X-100. LNP-mRNA samples in TE buffer and TE buffer+0.75% Triton X-100 were prepared with appropriate dilution so that reading was in the range of standard curve (400-2,000 fold). In a 384-well plate (Costar non-treated #3573) 0.04 ml of standard (in duplicate) or sample (in triplicate) were added per well. Ribogreen reagent was diluted 240-fold in TE buffer and added 0.06 ml per well. The contents of wells were mixed and fluorescence was measured (excitation=480 nm, emission=520 nm). Background values (no RNA) were subtracted from standard and test sample values and the concentrations of RNA were determined in the samples using the standard curves. The percent encapsulation of the sample was determined by dividing the difference in concentrations between sample+triton and sample in buffer alone by the sample+triton concentration.

The test system of series [4] is human leptin. The series is described as follows: Mouse intravenous tail vein injection of modified synthetic leptin mRNA, human leptin ELISA. The conditions noted are these: human leptin in mouse plasma, 10 μg leptin mRNA. The series is classed as in vivo, C57BL/6 mouse. The procedure:
Before the tail vein injection, mouse body weights were recorded and diet weighted, with mice grouped according to their body weights. Mice were prepared by warming them under a heating lamp for ˜2 minutes, with the mice about 12 inches from heat lamp.
For the tail vein injection procedure, the mice were placed in a restrainer and their tails cleaned with 70% alcohol. A 27 gauge needle (Becton Dickinson, Catalogue #305109) connected with a 1 ml syringe (Becton Dickinson, Catalogue #309659) was inserted into the tail vein, with bevel facing up, and the syringe plunger was pulled backwards to ensure blood is drawn into the syringe. The desired volume of modified synthetic leptin mRNA was injected by hand with moderate pressure and speed. The needle was then withdrawn and bleeding stopped by adding pressure to injection site with gauze.
Single housed, 8-9 week old, male C57BL/6 mice were used for the in vivo study. FPLC purified modified synthetic leptin mRNA (SEQ ID NO: 5) in which the uridines were substituted with pseudouridine was packaged in a cationic lipid (N:P molar ratio=8:1) and then were diluted in injectable saline at a dose of 10 μg per average group body weight.
On day 0, animals were weighed and sorted according to average body weight. Mice were dosed, and food intake (FI) was recorded, on each of days 1-7 and days 9, 11, and 16.
Human leptin in mouse plasma was measured by ELISA. Antibodies purchased from the R&D Systems duoset (Cat# DY398E, part#840279 for capture antibody and part#840280 for detection antibody) were reconstituted using PBS and titered, again using PBS. The capture antibody was coated at 4 ug/ml in 30 ul/well on a white Nunc® Maxisorp 384 well plate (Cat#460372). After an overnight incubation at room temperature the capture antibody was aspirated and the plate blocked for 2 hours at room temperature with 90 ul/well of KPL milk blocker (Cat#50-82-00). Once the incubation was completed the plate was aspirated and recombinant standards and samples were added to the plate at 30 ul/well for 2 hours at 37° C. while shaking at 600 rpm. Sample/standard dilutions were made using casein sample diluent. Washing/aspiration 3 times with 100 ul/well followed, using Teknova plate wash solution (Cat# P1192). Next, detection antibody was diluted using casein detection antibody diluent to 12.5 ng/ml and added at 30 ul/well for 2 hours room temperature. After this incubation, the plate was washed again and a solution of poly-streptavidin-HRP (Cat#21140) at a 1:1250 dilution in HRP dilution buffer was added to each well (30 ul/well) and incubated for 30 minutes room temperature. A final wash/aspiration removed the HRP solution and a chemiluminescent substrate was added at 30 ul/well (Cat#1859678 & 1859679). The plate was quickly read using a SpectramaxM5 plate reader with a 50 ms integration time. The dynamic range of the ELISA is from 100-2,000 pg/ml (6.25-125 pM) of human leptin.

[5] abbreviates: leptin mRNA lipid nanoparticles.
Where [6] appears, read: FVII siRNA LNP, Chol/DSPC/S010, molar ratio 45/44/9/2, Z-average.
Setting [7] is: FVII siRNA LNP, Chol/DSPC/S010, molar ratio 45/44/9/2.

As to `CCCCCCCCCOC(=O)CCCCCCC(=O)OCc1cc(COC(=O)CCCCCCC(=O)OCCCCCCCCC)cc(CN(C)C)c1` [Example 79, O′^1,O^1-((5-((dimethylamino)methyl)-1,3-phenylene)bis(methylene)) 8-dinonyl dioctanedioate], the “Size (nm)” value in series [1] (setting [5]) is listed as 140.5 nm. The compound also returned a PDI in series [2] (setting [5]) of 0.116. Further, the “% encapsulation” value in series [3] came to 91.6%. For the same compound, the “Leptin expression IV-C57BI/6 (ng/mL), 6 h” value in series [4] (6 h) is 1.36 (6 h) ng/mL.

As to `CCCCCCCCCCCCOC(=O)CCCCCOc1cc(CN(C)C)cc(OCCCCCC(=O)OCCCCCCCCCCCC)c1` [Example 90, didodecyl 6,6′-((5-((dimethylamino)methyl)-1,3-phenylene)bis(oxy))dihexanoate], the “Size (nm)” value is 87.54 nm in series [1] (setting [6]) and 164.7 nm in series [1] (setting [5]). Further, the PDI in series [2] (setting [7]) came out at 0.073; in series [2] (setting [5]) it was 0.090. For the same compound, the “% encapsulation” value in series [3] was found to be 80.9%. Further, in series [4], the “Leptin expression IV-C57BI/6, 24 h” value came to 0.74 ng/mL.

`CCCCCCCC(=O)OCCCCCCCCCCOC(=O)CCC(=O)OCc1cc(COC(=O)CCC(=O)OCCCCCCCCCCOC(=O)CCCCCCC)cc(CN(C)C)c1` [Example 78, O,O′-((5-((dimethylamino)methyl)-1,3-phenylene)bis(methylene))bis(10-(octanoyloxy)decyl)disuccinate]: the “Size (nm)” value in series [1] (setting [6]) is 178.2 nm; in series [1] (setting [5]) it was 164.0 nm. The PDI is 0.043 in series [2] (setting [7]) and 0.150 in series [2] (setting [5]). In addition, in series [3], the “% encapsulation” value was found to be 71.1%. Moreover, the “Leptin expression IV-C57BI/6, 24 h” value in series [4] came to 0.96 ng/mL.
